# Laboratory results taken from article PMC12199309, “Isolation, structural elucidation, and integrated biological and computational evaluation of antidiabetic labdane diterpenes from Curcuma zedoaria rhizomes” (RSC Advances, 2025).
# Like-named read-outs stand apart in the source and are kept apart here.
# Experiments:
# [1] = target: T1, α-Glucosidase (EC 3.2.1.20) (Saccharomyces cerevisiae, UniProt P53341); assay: biochemical; settings: for inhibition at 10 µM / inhibition at 25 µM / inhibition at 50 µM / inhibition at 100 µM / inhibition at 1 µM / inhibition at 2.5 µM / inhibition at 5 µM: read-out: Inhibition rate (%)
# T1 construct: purchased Sigma Chemical Co. (St. Louis, MO, USA)
# T1 sequence (P53341 whole entry): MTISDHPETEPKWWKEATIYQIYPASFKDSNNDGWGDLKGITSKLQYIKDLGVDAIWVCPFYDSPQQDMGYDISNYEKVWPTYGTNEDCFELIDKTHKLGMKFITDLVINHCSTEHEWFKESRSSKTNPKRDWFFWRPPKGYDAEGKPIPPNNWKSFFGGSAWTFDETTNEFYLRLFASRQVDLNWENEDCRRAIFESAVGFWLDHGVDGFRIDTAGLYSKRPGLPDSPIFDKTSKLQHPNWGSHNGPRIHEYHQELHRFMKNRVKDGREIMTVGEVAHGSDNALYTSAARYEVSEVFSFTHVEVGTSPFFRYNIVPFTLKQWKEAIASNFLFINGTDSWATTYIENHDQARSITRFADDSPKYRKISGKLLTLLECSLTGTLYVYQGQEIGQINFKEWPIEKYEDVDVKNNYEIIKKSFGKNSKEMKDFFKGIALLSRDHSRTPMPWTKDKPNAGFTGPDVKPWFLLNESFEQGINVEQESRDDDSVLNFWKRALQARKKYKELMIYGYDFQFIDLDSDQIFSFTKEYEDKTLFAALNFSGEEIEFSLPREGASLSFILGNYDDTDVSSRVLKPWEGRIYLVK
# Procedure: Five isolated compounds were examined to assess their inhibitory effect on α-glucosidase at concentrations ranging from 1 to 100 μM. […]
# Optical values were conducted on a Shimadzu UV-1800 spectrophotometer (Shimadzu Pte., Ltd, Singapore). IR spectra were measured with a Shimadzu IR-408 infrared spectrometer (Shimadzu Pte., Ltd, Singapore). NMR spectra were acquired on a Bruker Avance III 500 spectrometer Bruker BioSpin AG, Bangkok, (Thailand), with chemical shifts (δ) referenced to deuterated solvents. HR-ESI-MS data were obtained on Bruker micrOTOFQII mass spectrometer (Bruker Singapore Pte., Ltd, Singapore). Column chromatography utilized silica gel 60 (0.06–0.2 mm; Scharlau, Barcelona, Spain) and LiChroprep RP-18 (40–63 μm; Merck KGaA, Darmstadt, Germany). Thin-layer chromatography (TLC) employed Kieselgel 60 F254 or RP-18 F254 plates from Merck KGaA (Darmstadt, Germany). α-Glucosidase (EC 3.2.1.20), derived from Saccharomyces cerevisiae (750 UN), along with p-nitrophenyl-α-D-glucopyranoside, was procured from Sigma Chemical Co. (St. Louis, MO, USA). […] All other chemicals and solvents were of the highest purity or analytical grade.
# The inhibitory activity of α-glucosidase was assessed using a modified method based on Kurihara et al.[37] The reaction was initiated by adding 50 μL of 1.5 mM p-nitrophenyl-α-D-glucopyranoside and 50 μL of 0.1 U mL^−1 α-glucosidase in 0.01 M phosphate buffer (pH 7.0) to 625 μL of sample solution. The reaction was conducted at 37 °C for 30 minutes and terminated with 0.1 M Na2CO3. Enzymatic activity was quantified by measuring absorbance at a wavelength of 401 nm. One unit of α-glucosidase activity was defined as the amount of enzyme that liberates […] p-nitrophenol per minute. The IC50 value represented the inhibitor concentration that suppressed 50% of enzyme activity.
# [2] = target: T1, α-Glucosidase (EC 3.2.1.20); assay: biochemical; settings: read-out: Inhibition rate (%)
# [3] = α-glucosidase inhibition, 37 °C, 30 minutes, pH 7.0, read-out: IC50
Structure (SMILES),IC50 [1] [µM],inhibition at 10 µM [1] [%],inhibition at 25 µM [1] [%],inhibition at 50 µM [1] [%],inhibition at 100 µM [1] [%],inhibition at 1 µM [1] [%],inhibition at 2.5 µM [1] [%],inhibition at 5 µM [1] [%],"IC50 [1, 3] [µM]",inhibition at 250 µM [2] [%]
"C=C1CCC2C(C)(C)CCCC2(C)C1CC=C(COC(C)=O)C(=O)O (centres unmarked) [CZ1, zedolabdin A]",14.1,29.5 ± 1.8,81.4 ± 0.5,96.2 ± 0.4,98.8 ± 0.4,–,–,–,–,–
"C=C1CCC2C(C)(C)CCCC2(C)C1CC=C(CO)C(=O)O (centres unmarked) [CZ2, (E)-14-hydroxy-15-norlabda-8(17),12-dien-16-oic acid]",25.5,24.6 ± 4.1,46.3 ± 3.1,72.4 ± 2,99.1 ± 2,–,–,–,–,–
"C=C1CC[C@H]2C(C)(C)CCC[C@]2(C)[C@H]1/C=C/C1=C(O)COC1=O [CZ3, zerumin]",–,73.4 ± 2.3,–,–,–,6.9 ± 4,20.8 ± 3.6,35.2 ± 1.9,6.2,–
"C=C1CC[C@H]2C(C)(C)CCC[C@]2(C)[C@H]1CCC1=CC(O)OC1=O (some centres unmarked) [CZ4, coronarin C]",–,95.4 ± 1.5,–,–,–,13.7 ± 5.4,34 ± 0.9,81 ± 1.7,3,–
"C=C1CCC2C(C)(C)CCCC2(C)C1C=CC(=O)O (centres unmarked) [CZ5, (E)-14,15,16-trinorlabda-8(17),11-dien-13-oic acid]",37.6,3.5 ± 3.6,16.6 ± 3.8,75.8 ± 4.4,99.8 ± 0.2,–,–,–,–,–
"C[C@H]1O[C@H](O[C@H]2[C@H](O)[C@@H](O)[C@@H](O[C@H]3[C@H](O)[C@@H](O)C(O)O[C@@H]3CO)O[C@@H]2CO)[C@H](O)[C@@H](O)[C@@H]1N[C@H]1C=C(CO)[C@@H](O)[C@H](O)[C@H]1O (some centres unmarked) [PC, acarbose, reference compound]",–,–,8.6 ± 1.1,19.7 ± 1.3,32.1 ± 1.7,–,–,–,–,66 ± 1.2
